In publication PMC9455983 (International Journal of Molecular Sciences, 2022):

Tests used:
[1] = system: C57BL/6J mice; assay: Conditioned place preference / aversion; format: in vivo, mouse; conditions: 0.1, 1 or 10 nmol, i.c.v.; two days of place conditioning
[2] = system: C57BL/6J mice; assay: Ambulation (locomotor activity) in CLAMS/Oxymax system; format: in vivo, mouse; conditions: i.c.v.
Procedure: (§1) Respiration rates (in breaths per minute) and animal locomotive activity (as ambulations) were assessed using the Oxymax/CLAMS system (Columbus Instruments, Columbus, OH), as described previously. Mice were habituated to their individual sealed housing chambers for 60 min before testing. Mice were administered 1968-22 (0.3–100 nmol, i.c.v.), morphine (100 nmol, i.c.v.), or vehicle, as indicated, and five min later confined to the CLAMS testing chambers. Pressure monitoring within the sealed chambers measured frequency of respiration. Infrared beams located in the floor measured locomotion as number of beam breaks. Respiration and locomotive data were averaged over 20 min periods for 120 min post-injection of the test compound. Data are presented as % vehicle response ± SEM, ambulation or breaths per minute.

[3] = system: C57BL/6J mice; assay: Acute antinociceptive tolerance determination; conditions: i.c.v.
[4] = system: C57BL/6J mice; assay: Respiration rate in CLAMS/Oxymax system; format: in vivo, mouse; conditions: i.c.v.
Procedure: as §1

**Q.** How did the place conditioning result [1] turn out when `Cc1cc(O)cc(C)c1C[C@H]1CN([C@@H](Cc2c(C)cc(O)cc2C)CN2C(=N)NC[C@@H]2C)C(=N)N1` [1968-22] was run?
**A.** no significant preference or aversion

**Q.** What about the “effect on ambulation vs vehicle” value ([2]; 0.3 nmol, 0–20 min) of the same molecule?
**A.** brief reductions in ambulations

**Q.** What about the “effect on ambulation vs vehicle” value ([2]; 100 nmol) of the same molecule?
**A.** elevated ambulations

**Q.** And the “effect on ambulation vs vehicle” value ([2]; 1 or 10 nmol)?
**A.** without significant effect

**Q.** What about the “acute antinociceptive tolerance (in words)” value [3] of the same molecule?
**A.** significant tolerance

**Q.** What about the “ED50 (95% C.I.) of second dose at 8 h” value ([3]; after ED50 pretreatment at 0 h) of the same molecule?
**A.** 0.18 (0.09–0.32) nmol

**Q.** And the “effect on respiration rate vs vehicle” value ([4]; 100 nmol)?
**A.** increases in respiration rates

**Q.** What about the “effect on respiration rate vs vehicle” value ([4]; 0.3, 1 or 10 nmol) of the same molecule?
**A.** did not have any significant effect
